The values that follow are results of earlier work, collected in US8003690B2, “Topical nanoparticulate spironolactone formulation” (Jagotec AG, priority 2002, dated 2011).

Turning to `CC(=O)S[C@@H]1CC2=CC(=O)CC[C@]2(C)[C@H]2CC[C@@]3(C)[C@@H](CC[C@@]34CCC(=O)O4)[C@H]12` [Spironolactone], the solubility in water is 2.8 mg/100 ml.
